Experiments:
[1] = target: IKKe (Homo sapiens (Human), UniProt Q14164); experiment: IKKe Biochemical Assay
Method: IKKe Biochemical Assay Test compounds were transferred into Labcyte polypropylene 384 well plates ([…]-25) and diluted to 3 mM using DMSO. 3 mM test compounds were dispensed using Labcyte ECHO dose response module into Greiner 784075 plates (columns 3-12 and 13-22, 10 point 1:4) so that high concentration was 30 uM final. 100 uM of a reference compound (1 uM final high concentration). Backfilling was performed if necessary so that all wells contain 1% DMSO final: add 75 nl DMSO/well into columns 1, 2 and 24 using Labcyte Echo. add 75 nl 1.0 mM staurosporine/well into column 23 using Labcyte Echo (10 uM final) add 4.5 ul enzyme/well using multidrop dispenser add 3 ul substrate/well using multidrop dispenser incubate at 25° C. for 90 min. add 7.5 ul 2× stop buffer read on labchip ez reader II using IKKε. job Raw data files were opened in the Caliper LabChip Reviewer program (Version 3.0.265.0 SP2) and peak assignments were adjusted to reflect “substrate first” with the software's post-run analysis options. A spline-fit baseline was applied using the software's analysis algorithm.

[2] = target: TBK1 (Homo sapiens (Human), UniProt Q9UHD2); experiment: TBK Biochemical Assay
Sequence of TBK1 (Q9UHD2 whole entry, species assumed): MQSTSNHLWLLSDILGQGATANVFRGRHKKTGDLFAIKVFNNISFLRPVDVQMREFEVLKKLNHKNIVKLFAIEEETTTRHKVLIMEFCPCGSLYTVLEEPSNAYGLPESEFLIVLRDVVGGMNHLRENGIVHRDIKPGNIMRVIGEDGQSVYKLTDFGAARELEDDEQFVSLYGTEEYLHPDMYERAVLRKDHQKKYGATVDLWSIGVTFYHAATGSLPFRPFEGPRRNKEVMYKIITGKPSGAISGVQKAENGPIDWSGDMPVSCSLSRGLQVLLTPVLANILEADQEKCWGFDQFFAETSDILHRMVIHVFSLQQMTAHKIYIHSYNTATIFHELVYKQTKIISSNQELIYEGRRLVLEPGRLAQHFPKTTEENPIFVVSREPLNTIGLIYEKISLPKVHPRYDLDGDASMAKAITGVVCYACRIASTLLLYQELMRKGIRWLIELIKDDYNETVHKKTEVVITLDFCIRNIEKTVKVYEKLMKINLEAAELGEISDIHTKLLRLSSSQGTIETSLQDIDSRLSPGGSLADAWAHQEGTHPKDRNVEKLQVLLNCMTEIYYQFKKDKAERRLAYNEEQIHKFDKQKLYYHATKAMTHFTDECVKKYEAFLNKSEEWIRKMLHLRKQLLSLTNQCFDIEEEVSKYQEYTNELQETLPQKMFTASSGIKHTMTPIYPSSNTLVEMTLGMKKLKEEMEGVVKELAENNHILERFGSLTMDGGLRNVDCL
Method: Example 106: TBK Biochemical Assay Test compounds were transferred into Labcyte polypropylene 384 well plates ([…]-25) and diluted to 3 mM using DMSO. 3 mM test compounds were dispensed using Labcyte ECHO dose response module into Greiner 784075 plates (columns 3-12 and 13-22, 10 point 1:4) so that high concentration was 30 uM final. 100 uM of a reference compound (1 uM final high concentration). Backfilling was performed if necessary so that all wells contain 1% DMSO final: add 75 nl DMSO/well into columns 1, 2 and 24 using Labcyte Echo. add 75 nl 1.0 mM staurosporine/well into column 23 using Labcyte Echo (10 uM final) add 4.5 ul enzyme/well using multidrop dispenser add 3 ul substrate/well using multidrop dispenser incubate at 25° C. in Heidolph incubator for 90 min. add 7.5 ul 2× stop buffer using multidrop dispenser read on labchip ez reader II using TBK1.job Raw data files were opened in the Caliper LabChip Reviewer program (Version 3.0.265.0 SP2) and peak assignments were adjusted to reflect “substrate first” with the software's post-run analysis options. A spline-fit baseline was applied using the software's analysis algorithm.

Sequence of IKKe (Q14164 whole entry, species assumed): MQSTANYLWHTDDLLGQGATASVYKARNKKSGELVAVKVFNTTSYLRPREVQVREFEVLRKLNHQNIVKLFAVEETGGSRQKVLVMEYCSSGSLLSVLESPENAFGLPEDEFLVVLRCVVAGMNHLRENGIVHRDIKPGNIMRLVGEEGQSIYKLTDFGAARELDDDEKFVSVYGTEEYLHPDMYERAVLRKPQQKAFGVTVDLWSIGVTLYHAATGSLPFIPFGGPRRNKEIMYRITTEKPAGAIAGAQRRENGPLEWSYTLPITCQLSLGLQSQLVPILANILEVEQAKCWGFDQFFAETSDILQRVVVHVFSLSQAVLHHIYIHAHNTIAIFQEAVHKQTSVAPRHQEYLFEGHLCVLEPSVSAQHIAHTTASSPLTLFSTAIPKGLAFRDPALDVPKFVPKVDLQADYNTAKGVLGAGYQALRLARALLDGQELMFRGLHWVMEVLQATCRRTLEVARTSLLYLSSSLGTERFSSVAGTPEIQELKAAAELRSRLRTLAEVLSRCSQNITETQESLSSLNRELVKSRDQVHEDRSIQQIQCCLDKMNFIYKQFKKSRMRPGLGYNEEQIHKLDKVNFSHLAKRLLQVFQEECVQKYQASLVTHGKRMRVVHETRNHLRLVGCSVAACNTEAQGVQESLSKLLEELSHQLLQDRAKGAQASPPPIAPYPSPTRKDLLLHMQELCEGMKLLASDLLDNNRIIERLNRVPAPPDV

SMILES	IC50 [1] [nM]	IC50 [2] [nM]
COc1nc(Nc2cc(-c3ccc(OC4CCOCC4)c(C#N)n3)ncn2)ccc1C1CCN(C)CC1 [Example 25, 6-(6-[[6-methoxy-5-(1-methylpiperidin-4-yl)pyridin-2-yl]amino]pyrimidin-4-yl)-3-(oxan-4-yloxy)pyridine-2-carbonitrile]	1000 to 5000	1000 to 5000
COc1nc(Nc2cc(-c3cc(C#N)c(OC4CCOCC4)cn3)ncn2)ccc1C(=O)N(C)C [Example 26, 6-([6-[4-cyano-5-(oxan-4-yloxy)pyridin-2-yl]pyrimidin-4-yl]amino)-2-methoxy-N,N-dimethylpyridine-3-carboxamide]	< 100	< 100
COc1nc(Nc2cc(-c3ccc(OC4CCOCC4)c(C#N)c3)ncn2)ccc1C1CCN(CC(F)(F)F)CC1 [Example 27, 5-[6-([6-methoxy-5-[1-(2,2,2-trifluoroethyl)piperidin-4-yl]pyridin-2-yl]amino)pyrimidin-4-yl]-2-(oxan-4-yloxy)benzonitrile]	100 to 1000	100 to 1000
COc1nc(Nc2cc(-c3ccc(OC4CCOCC4)c(C#N)c3)ncn2)ccc1C1CCN(CC(F)F)CC1 [Example 28, 5-[6-([5-[1-(2,2-difluoroethyl)piperidin-4-yl]-6-methoxypyridin-2-yl]amino)pyrimidin-4-yl]-2-(oxan-4-yloxy)benzonitrile]	< 100	< 100
CN1CCN(c2ccc(Nc3cc(-c4ccc(OC5CCOCC5)c(C#N)c4)ncn3)nc2)CC1 [Example 29, 5-(6-[[5-(4-methylpiperazin-1-yl)pyridin-2-yl]amino]pyrimidin-4-yl)-2-(oxan-4-yloxy)benzonitrile]	< 100	< 100
CN(C)C(=O)c1ccc(Nc2cc(-c3ccc(OC4CCOCC4)c(C#N)c3)ncn2)nc1 [Example 30, 6-([6-[3-cyano-4-(oxan-4-yloxy)phenyl]pyrimidin-4-yl]amino)-N,N-dimethylpyridine-3-carboxamide]	< 100	< 100
COc1cc(Nc2cc(-c3ccc(OC4CCOCC4)c(C#N)c3)ncn2)ncc1C(=O)N(C)C [Example 31, 6-([6-[3-cyano-4-(oxan-4-yloxy)phenyl]pyrimidin-4-yl]amino)-4-methoxy-N,N-dimethylpyridine-3-carboxamide]	< 100	< 100
COc1cc(Nc2cc(-c3ccc(OC4CCOCC4)c(C#N)c3)ncn2)cnc1C(=O)N(C)C [Example 32, 5-([6-[3-cyano-4-(oxan-4-yloxy)phenyl]pyrimidin-4-yl]amino)-3-methoxy-N,N-dimethylpyridine-2-carboxamide]	1000 to 5000	1000 to 5000
COc1cc(Nc2cc(-c3ccc(OC4CCOCC4)c(C#N)c3)ncn2)ncc1N1CCN(C)CC1 [Example 33, 5-(6-[[4-methoxy-5-(4-methylpiperazin-1-yl)pyridin-2-yl]amino]pyrimidin-4-yl)-2-(oxan-4-yloxy)benzonitrile]	< 100	< 100
COc1cc(Nc2cc(-c3ccc(OC4CCOCC4)c(C#N)c3)ncn2)cnc1N1CCN(C)CC1 [Example 34, 5-(6-[[5-methoxy-6-(4-methylpiperazin-1-yl)pyridin-3-yl]amino]pyrimidin-4-yl)-2-(oxan-4-yloxy)benzonitrile]	100 to 1000	100 to 1000
COc1cc(Nc2cc(-c3ccc(OC4CCOCC4)c(C#N)c3)ncn2)cnc1C1CCN(C)CC1 [Example 35, 5-(6-[[5-methoxy-6-(1-methylpiperidin-4-yl)pyridin-3-yl]amino]pyrimidin-4-yl)-2-(oxan-4-yloxy)benzonitrile]	100 to 1000	100 to 1000
COc1cc(Nc2cc(-c3ccc(OC4CCOCC4)c(C#N)c3)ncn2)ncc1C1CCN(C)CC1 [Example 36, 5-(6-[[4-methoxy-5-(1-methylpiperidin-4-yl)pyridin-2-yl]amino]pyrimidin-4-yl)-2-(oxan-4-yloxy)benzonitrile]	< 100	< 100
COc1nc(Nc2cc(-c3ccc(OC4CN(C)C4)c(C#N)c3)ncn2)ccc1C(=O)N(C)C [Example 37, 6-[(6-[3-cyano-4-[(1-methylazetidin-3-yl)oxy]phenyl]pyrimidin-4-yl)amino]-2-methoxy-N,N-dimethylpyridine-3-carboxamide]	100 to 1000	100 to 1000
COc1nc(Nc2cc(-c3ccc(OC4CN(C)C4)c(C#N)c3)ncn2)ccc1N1CCN(C)CC1 [Example 38, 5-(6-[[6-methoxy-5-(4-methylpiperazin-1-yl)pyridin-2-yl]amino]pyrimidin-4-yl)-2-[(1-methylazetidin-3-yl)oxy]benzonitrile]	< 100	< 100
COc1nc(Nc2cc(-c3ccc(OC4CCN(C)C4)c(C#N)c3)ncn2)ccc1C(=O)N(C)C (centres unmarked) [Example 39, 6-[(6-[3-cyano-4-[(1-methylpyrrolidin-3-yl)oxy]phenyl]pyrimidin-4-yl)amino]-2-methoxy-N,N-dimethylpyridine-3-carboxamide]	100 to 1000	100 to 1000
CN1CCN(c2ccc(Nc3cc(-c4ccc(OC5CCN(C)C5)c(C#N)c4)ncn3)nc2)CC1 (centres unmarked) [Example 40, 5-(6-[[5-(4-methylpiperazin-1-yl)pyridin-2-yl]amino]pyrimidin-4-yl)-2-[(1-methylpyrrolidin-3-yl)oxy]benzonitrile]	100 to 1000	100 to 1000
COc1nc(Nc2cc(-c3ccc(OC4CCN(C)CC4)c(C#N)c3)ncn2)ccc1C(=O)N(C)C [Example 41, 6-[(6-[3-cyano-4-[(1-methylpiperidin-4-yl)oxy]phenyl]pyrimidin-4-yl)amino]-2-methoxy-N,N-dimethylpyridine-3-carboxamide]	1000 to 5000	1000 to 5000
COc1nc(Nc2cc(-c3ccc(OC4CCN(C(=O)CO)CC4)c(C#N)c3)ncn2)ccc1C(=O)N(C)C [Example 42, 6-[[6-(3-cyano-4-[[1-(2-hydroxyacetyl)piperidin-4-yl]oxy]phenyl)pyrimidin-4-yl]amino]-2-methoxy-N,N-dimethylpyridine-3-carboxamide]	< 100	< 100
COc1nc(Nc2cc(-c3ccc(OC4CCN(C(=O)c5cnco5)CC4)c(C#N)c3)ncn2)ccc1C(=O)N(C)C [Example 43, 6-([6-[3-cyano-4-([1-[(1,3-oxazol-5-yl)carbonyl]piperidin-4-yl]oxy)phenyl]pyrimidin-4-yl]amino)-2-methoxy-N,N-dimethylpyridine-3-carboxamide]	< 100	< 100
COc1nc(Nc2cc(-c3ccc(OC4CCN(C(=O)c5cocn5)CC4)c(C#N)c3)ncn2)ccc1C(=O)N(C)C [Example 44, 6-([6-[3-cyano-4-([1-[(1,3-oxazol-4-yl)carbonyl]piperidin-4-yl]oxy)phenyl]pyrimidin-4-yl]amino)-2-methoxy-N,N-dimethylpyridine-3-carboxamide]	< 100	< 100
COc1nc(Nc2cc(-c3ccc(OC4CCN(C(=O)c5n[nH]c(C)n5)CC4)c(C#N)c3)ncn2)ccc1C(=O)N(C)C [Example 45, 6-([6-[3-cyano-4-([1-[(5-methyl-1H-1,2,4-triazol-3-yl)carbonyl]piperidin-4-yl]oxy)phenyl]pyrimidin-4-yl]amino)-2-methoxy-N,N-dimethylpyridine-3-carboxamide]	< 100	< 100
COc1nc(Nc2cc(-c3ccc(O[C@H]4CCNC[C@H]4F)c(C#N)c3)ncn2)ccc1C(=O)N(C)C [Example 46, 6-[[6-(3-cyano-4-[[(3R,4S)-3-fluoropiperidin-4-yl]oxy]phenyl)pyrimidin-4-yl]amino]-2-methoxy-N,N-dimethylpyridine-3-carboxamide]	100 to 1000	100 to 1000
COc1nc(Nc2cc(-c3ccc(O[C@H]4CCN(C(=O)CO)C[C@H]4F)c(C#N)c3)ncn2)ccc1C(=O)N(C)C [Example 47, 6-[[6-(3-cyano-4-[[(3R,4S)-3-fluoro-1-(2-hydroxyacetyl)piperidin-4-yl]oxy]phenyl)pyrimidin-4-yl]amino]-2-methoxy-N,N-dimethylpyridine-3-carboxamide]	< 100	< 100
COc1nc(Nc2cc(-c3ccc(OC4CCN(C)CC4(F)F)c(C#N)c3)ncn2)ccc1C(=O)N(C)C (centres unmarked) [Example 48, 6-[(6-[3-cyano-4-[(3,3-difluoro-1-methylpiperidin-4-yl)oxy]phenyl]pyrimidin-4-yl)amino]-2-methoxy-N,N-dimethylpyridine-3-carboxamide]	< 100	< 100
COc1nc(Nc2cc(-c3ccc(OC4CCN(C(=O)CO)CC4(F)F)c(C#N)c3)ncn2)ccc1C(=O)N(C)C (centres unmarked) [Example 49, 6-[[6-(3-cyano-4-[[3,3-difluoro-1-(2-hydroxyacetyl)piperidin-4-yl]oxy]phenyl)pyrimidin-4-yl]amino]-2-methoxy-N,N-dimethylpyridine-3-carboxamide]	< 100	< 100
